pIC50: −log10 of the molar value.
Target: Prolyl endopeptidase (Sus scrofa, UniProt P23687)
Assay: Inhibition of pig brain POP

Prolyl endopeptidase, sequence (P23687 whole entry): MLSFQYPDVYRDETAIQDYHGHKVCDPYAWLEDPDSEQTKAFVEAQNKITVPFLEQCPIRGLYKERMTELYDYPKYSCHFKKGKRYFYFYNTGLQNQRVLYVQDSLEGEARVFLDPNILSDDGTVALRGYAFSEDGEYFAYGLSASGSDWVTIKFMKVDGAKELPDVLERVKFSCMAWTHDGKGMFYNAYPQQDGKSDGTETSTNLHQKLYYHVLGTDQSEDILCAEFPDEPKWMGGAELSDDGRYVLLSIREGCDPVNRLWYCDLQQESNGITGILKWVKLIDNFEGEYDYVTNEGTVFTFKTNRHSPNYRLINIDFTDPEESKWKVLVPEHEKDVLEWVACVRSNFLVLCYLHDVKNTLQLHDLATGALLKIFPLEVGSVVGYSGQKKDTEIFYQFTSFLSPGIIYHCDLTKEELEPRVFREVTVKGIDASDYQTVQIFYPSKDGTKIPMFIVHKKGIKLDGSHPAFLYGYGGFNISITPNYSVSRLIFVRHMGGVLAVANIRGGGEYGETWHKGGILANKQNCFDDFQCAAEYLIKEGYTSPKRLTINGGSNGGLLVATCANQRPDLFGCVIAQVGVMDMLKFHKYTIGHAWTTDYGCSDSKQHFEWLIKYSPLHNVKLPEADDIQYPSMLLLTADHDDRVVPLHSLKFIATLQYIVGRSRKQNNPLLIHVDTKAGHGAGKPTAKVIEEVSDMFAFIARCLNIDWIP

pIC50	SMILES
9.08	O=C1OC2(c3ccc(O)cc3Oc3cc(O)ccc32)c2ccc(NC(=S)NCCCCCC(=O)N3CCC[C@H]3C(=O)N3CCC[C@H]3C(=O)CO)cc21
6.74	O=C1OC2(c3ccc(O)cc3Oc3cc(O)ccc32)c2ccc(NC(=S)NCC(=O)N3CCC[C@H]3C(=O)N3CCC[C@H]3C(=O)CO)cc21

Reference: ChEMBL document CHEMBL1139461, “Synthesis and characterization of the novel fluorescent prolyl oligopeptidase inhibitor 4-fluoresceinthiocarbamoyl-6-aminocaproyl-L-prolyl-2(S)-(hydroxyacetyl)pyrrolidine” (J Med Chem, 2005)
